Earlier results, collected in paper PMC9063988 (JACS Au, 2022).

Tested on: SARS-CoV-2 spike pseudo-lentiviral vector into A549 cells overexpressing ACE2 and TMPRSS2

For `O=c1c2ccccc2[se]n1-c1ccccc1` [ebselen], the “inhibition of entry of SARS-CoV-2 lentivectors” value is given as “only at high IC50 with high toxicity”.
